# Data from US10927106B2, “Benzothiazole derivatives as DYRK1 inhibitors” (PHARMASUM THERAPEUTICS AS, priority 2017, dated 2021).
# Key:
# [1] = test system: tau/MAPT phosphorylation in TS21 neurons; test: Tau/MAPT phosphorylation in TS21 neuronal cultures, Western blotting; format: cell-based, human; conditions: treated for 10 days
# Experimental: (§1) Overexpression of DYRK1A in DS is thought to account for increased tau phosphorylation by GSK3β and the increase in DYRK1A positive neurofibrillary tangles (NFTs) in the brains of people with DS and AD. Therefore therapeutic inhibition of DYRK1A activity in DS and AD may delay the progression of neurodegeneration in DS and AD. The following experiment on reduction of tau phosphorylation by inhibition of DYRK1A by inhibitor 4-93 was performed as described in the literature (Shi, Y. et al. A human stem cell model of early Alzheimer's disease pathology in Down syndrome. Sci. Transl. Med. 4, 124ra29 (2012)).
# (§2) Neuronal cultures at day 40 were treated with DYRK1A inhibitors and control compounds for 10 days. Total protein was extracted and total tau and phosphorylated tau/MAPT was quantified by Western blotting using antibodies to total tau and a number of phospho-tau epitopes.
# [2] = test system: tau/MAPT phosphorylation in control neurons; test: Tau/MAPT phosphorylation in control neurons, Western blotting; format: cell-based, human; conditions: treated for 10 days, compared to DMSO treated controls
# Experimental: as §1, §2
# DYRK1A = DYRK1A (Homo sapiens (Human), UniProt Q13627); test: IC50 determination, methodology similar to Example A (Example B); format: biochemical; conditions: against DYRK1A; Table 8
# Excerpt: This method is sensitive, accurate and provides a direct measure of activity.
# [3] = TS21 neurons, normalised to β-actin, vs DMSO treated controls
SMILES,total tau protein levels ([1]; TS21 neuronal cultures),"tau phosphorylation at Ser 396 [1, 3]","tau phosphorylation at Ser 404 [1, 3]",tau/MAPT phosphorylation at Ser 396 [2],tau/MAPT phosphorylation at Ser 404 [2],IC50 (DYRK1A) [nM]
"C[C@H](NC(=O)Cc1cc(F)cc(F)c1)C(=O)N[C@H](C(=O)OC(C)(C)C)c1ccccc1 [DAPT, reference compound]",increased,increased,increased,increased,increased,–
COc1ccc(Nc2ccncc2-c2nc3cc(OC)ccc3s2)c(F)c1 [PST-131],–,–,–,–,–,351
